This passage reports inhibition and IC50 results from patent publication US20260055117A1, “SUBSTITUTED PYRIDONE GPR84 ANTAGONISTS AND USES THEREOF” (Liminal BioSciences Limited, priority 2022, published 2026).

Molecules are shown by their SMILES. pIC50: −log10 of the molar value.

This test has as its target T1, human GPR84 receptor (Homo sapiens, UniProt Q9NQS5).
T1 construct: host or cells: HEK293, transiently transfected
The experiment in a line: Gαi biosensor BRET assay (GPR84 antagonism vs agonist ZQ-16). The test is classed as cell-based. The note with it: HEK293 cells, 200 nmol/L agonist ZQ-16; for inhibition at 10 µM: tested at 10 μM (concentration code D); for pIC50: Gαi biosensor BRET assay; for inhibition at 2 µM: tested at 2 μM (concentration code A). Summed up:
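HEK293 cells transiently expressing GPR84, Gαi2-Rluc8, GFP10-Gγ2 and Gβ1 were pre-incubated with compounds 5 min at 37 °C in Tyrode's buffer pH 7.5, then stimulated with 200 nmol/L ZQ-16 for 5 min at room temperature. BRET2 (acceptor/donor ratio) read after 5 μmol/L coelenterazine 400A, background- and vehicle-corrected.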

T1 sequence (Q9NQS5 whole entry): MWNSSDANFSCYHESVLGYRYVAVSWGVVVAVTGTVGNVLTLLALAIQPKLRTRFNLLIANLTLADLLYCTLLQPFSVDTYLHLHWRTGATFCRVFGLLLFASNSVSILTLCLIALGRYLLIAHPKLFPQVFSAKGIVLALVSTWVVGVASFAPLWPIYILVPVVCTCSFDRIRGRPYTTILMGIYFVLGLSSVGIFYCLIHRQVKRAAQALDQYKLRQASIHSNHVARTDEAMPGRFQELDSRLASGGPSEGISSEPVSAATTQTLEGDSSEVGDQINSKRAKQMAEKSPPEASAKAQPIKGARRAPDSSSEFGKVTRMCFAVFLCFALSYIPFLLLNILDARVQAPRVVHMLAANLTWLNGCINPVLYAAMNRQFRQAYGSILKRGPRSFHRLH

For `Cc1cc(OCc2ncn[nH]2)cc(=O)n1[C@H](C)c1ccc(C#CC2CC2)cc1` [Compound I-328], the inhibition at 10 µM is > 75%.

As for `Cc1cc(OCC(=O)N(C)CC(F)(F)F)cc(=O)n1[C@@H](C)c1ccc(C#CC2CC2)cc1` [Compound I-237], the inhibition at 10 µM is < 25%.

The compound `Cc1cc(C#CC2CC2)cc(=O)n1[C@H](C)c1ccc(C#CC2CC2)cc1` [Compound I-90] yielded an inhibition at 10 µM of 50 to 75%.

Compound `Cc1nc(OCC(=O)N2CCC[C@@H]2C(=O)O)cc(=O)n1[C@H](C)c1ccc(C#CC2CC2)cc1` [Compound I-296] came in with an inhibition at 10 µM of 50 to 75%.

With `Cc1cc(OCC(=O)N2CCC3(CC3)C2)cc(=O)n1[C@H](C)c1ccc(C#CC2CC2)cc1` [Compound I-319], the pIC50 was ≥ 6.52 and the inhibition at 2 µM was > 75%.

For `Cc1cc(OCC(=O)N2CCC[C@H]2C#N)cc(=O)n1[C@H](C)c1ccc(C#CC2CC2)cc1` [Compound I-305], the pIC50 was ≥ 6.52 and the inhibition at 2 µM is > 75%.

Regarding `Cc1cc(OCC(=O)N(C)C)cc(=O)n1[C@H](C)c1ccc(C#CC2(C(F)(F)F)CC2)cc1` [Compound I-56], the pIC50 is ≥ 6.52 and the inhibition at 10 µM was > 75%.

For the compound `Cc1cc(OCC(=O)N2CC[C@@H](C#N)C2)cc(=O)n1[C@H](C)c1ccc(C#CC2CC2)cc1` [Compound I-309], the pIC50 is ≥ 6.52 and the inhibition at 2 µM was > 75%.

On to `Cc1cc(OCC(=O)N2CCC[C@H]2CO)cc(=O)n1[C@H](C)c1ccc(C#CC2CC2)cc1` [Compound I-248], for which the pIC50 is ≥ 6.52 and the inhibition at 2 µM is > 75%.

Consider `Cc1cc(OCC(=O)N2CC(C)(CO)C2)cc(=O)n1[C@H](C)c1ccc(C#CC2CC2)cc1` [Compound I-313], for which the pIC50 was ≥ 6.52 and the inhibition at 2 µM is > 75%.

As to `Cc1cc(OCC(=O)N2C3CCC2COC3)cc(=O)n1[C@H](C)c1ccc(C#CC2CC2)cc1` [Compound I-324], the negative logarithm of the IC50 (pIC50) is ≥ 6.52 and the inhibition at 2 µM is > 75%.

As to `Cc1cc(OCc2ncccn2)cc(=O)n1[C@H](C)c1ccc(-c2ccc(C3CC3)cc2)cc1` [Compound I-150], the inhibition at 10 µM is < 25%.

`Cc1cc(OCC(=O)N(C)C)cc(=O)n1[C@H](C)c1ccc(C#CC2(O)CC2)cc1` [Compound I-210]: the inhibition at 10 µM is > 75%.

Consider `Cc1cc(OCC(=O)N2CC(F)C2)cc(=O)n1[C@H](C)c1ccc(C#CC2CC2)cc1` [Compound I-288], for which the pIC50 was 6.00 to 6.52 and the inhibition at 2 µM is > 75%.

As for `Cc1cc(OCC(=O)N(C)C)cc(=O)n1[C@H](C)c1ccc(C#CC2CC2(F)F)c(F)c1` (single isomer, unassigned) [Compound I-84], the pIC50 was ≥ 6.52.

In the case of `CCN(CC)C(=O)COc1cc(C)n([C@H](C)c2ccc(C#CC3CC3)cc2)c(=O)c1` [Compound I-268], the pIC50 was ≥ 6.52 and the inhibition at 2 µM was > 75%.

For `Cc1cc(OCC(=O)N2CC3(CCO3)C2)cc(=O)n1[C@H](C)c1ccc(C#CC2CC2)cc1` [Compound I-289], the pIC50 is ≥ 6.52 and the inhibition at 10 µM was > 75%.

Take `Cc1cc(OCC(=O)N(C(C)C)C(C)C)cc(=O)n1[C@H](C)c1ccc(C#CC2CC2)cc1` [Compound I-347]: the pIC50 is 6.00 to 6.52 and the inhibition at 10 µM was > 75%.

Consider `Cc1cc(OCC(=O)N2CC[C@H](N(C)S(C)(=O)=O)C2)cc(=O)n1[C@H](C)c1ccc(C#CC2CC2)cc1` [Compound I-337], for which the inhibition at 10 µM was > 75%.

Take `Cc1cc(OCC(=O)N2CCC(F)(F)CC2)cc(=O)n1[C@H](C)c1ccc(C#CC2CC2)c(F)c1` [Compound I-26]: the inhibition at 10 µM is > 75%.

In the case of `Cc1cc(OCc2nncn2C)cc(=O)n1[C@H](C)c1ccc(C#CC2CC2)cc1` [Compound I-330], the pIC50 is ≥ 6.52 and the inhibition at 2 µM was > 75%.

In the case of `Cc1cc(OCC(=S)N(C)C)cc(=O)n1[C@H](C)c1ccc(C#CC2CC2)cc1` [Compound I-279], the inhibition at 2 µM is > 75%.

With `Cc1cc(OCC(=O)O)cc(=O)n1[C@@H](C)c1ccc(C#CC2CC2)cc1` [Compound I-303], the inhibition at 10 µM is < 25%.

As for `Cc1cc(OCC(=O)C(C)(C)C)cc(=O)n1[C@H](C)c1ccc(C#CC2CC2)cc1` [Compound I-272], the pIC50 is 6.00 to 6.52 and the inhibition at 2 µM was > 75%.

Turning to `Cc1cc(OCC(=O)N2CCCC2)cc(=O)n1[C@H](C)c1ccc(C#CC2(C)CC2)cc1` [Compound I-88], the pIC50 was 6.00 to 6.52 and the inhibition at 10 µM is > 75%.

`CNS(=O)(=O)COc1cc(C)n([C@H](C)c2ccc(C#CC3CC3)c(F)c2)c(=O)c1` [Compound I-45] gave a pIC50 of 6.00 to 6.52 and an inhibition at 10 µM of 50 to 75%.

With `CNS(=O)(=O)[C@H]1CCN(C(=O)COc2cc(C)n([C@H](C)c3ccc(C#CC4CC4)cc3)c(=O)c2)C1` [Compound I-322], the pIC50 was 6.00 to 6.52 and the inhibition at 2 µM is > 75%.

Turning to `Cc1nc(OCC(=O)N(C)C)cc(=O)n1C(C)c1ccc(C#CC2CC2)cc1` (centres unmarked) [Compound I-89], the pIC50 is ≥ 6.52 and the inhibition at 2 µM is > 75%.

With `Cc1cc(OCC(=O)N2CCCC2(C)C)cc(=O)n1[C@H](C)c1ccc(C#CC2CC2)cc1` [Compound I-258], the pIC50 is ≥ 6.52 and the inhibition at 2 µM is > 75%.

On to `Cc1cc(OCC(=O)N(C)C)cc(=O)n1C(C)c1ccncc1` (centres unmarked) [Compound I-227], for which the inhibition at 10 µM is < 25%.

For `COC(COc1cc(C)n([C@H](C)c2ccc(C#CC3CC3)cc2)c(=O)c1)C(C)(C)C` (some centres unmarked) [Compound I-277], the pIC50 is < 5.52 and the inhibition at 10 µM is > 75%.

Take `Cc1cc(OCC(=O)O)cc(=O)n1[C@H](C)c1ccc(C#CC2CC2)cc1` [Compound I-21]: the inhibition at 10 µM fell in the range of 50 to 75%.

`Cc1cc(OCC(=O)NC2CNC2)cc(=O)n1[C@H](C)c1ccc(C#CC2CC2)cc1` [Compound I-69] returned an inhibition at 10 µM of 25 to 50%.

In turn, `CC#CC#Cc1ccc([C@@H](C)n2c(C)cc(OCc3ncccn3)cc2=O)cc1` [Compound I-74] gave an inhibition at 10 µM of 25 to 50%.

`COC(=O)COc1cc(C)n([C@H](C)c2ccc(C#CC3CC3)cc2)c(=O)c1` [Compound I-22]: the inhibition at 10 µM is > 75%.

With `Cc1cc(C#CC2CC2)cc(=O)n1[C@@H](C)c1ccc(C#CC2CC2)cc1` [Compound I-234], the inhibition at 10 µM was < 25%.

As to `Cc1cc(OCC(=O)N(C)C)cc(=O)n1[C@H](C)c1ccc(C#CC2CC2(F)F)c(F)c1` (stereo partly drawn) [Compound I-64, 2-((1-((1R)-1-(4-((2,2-difluorocyclopropyl)ethynyl)-3-fluorophenyl)ethyl)-6-methyl-2-oxo-1,2-dihydropyridin-4-yl)oxy)-N,N-dimethylacetamide], the pIC50 was ≥ 6.52 and the inhibition at 10 µM is > 75%.

`Cc1cc(OCC(=O)N(C)C)cc(=O)n1[C@H](C)c1ccc(C#CCC2CC2)cc1` [Compound I-32]: the pIC50 was ≥ 6.52 and the inhibition at 2 µM was > 75%.

Take `Cc1cc(OCc2ncccn2)cc(=O)n1[C@H](C)c1ccc(-c2cnc(C3CC3)cn2)c(F)c1` [Compound I-10]: the inhibition at 10 µM was < 25%.

In the case of `Cc1cc(OCC(=O)N2CC[C@H](C3CC3)C2)cc(=O)n1[C@H](C)c1ccc(C#CC2CC2)cc1` [Compound I-312], the inhibition at 2 µM was > 75%.

For `CCCCCCOc1ccc([C@@H](C)n2c(C)cc(OCc3ncccn3)cc2=O)cc1` [Compound I-130], the inhibition at 10 µM was < 25%.

Consider `Cc1cc(OCC(=O)N2CC(O)C2)cc(=O)n1[C@H](C)c1ccc(C#CC2CC2)cc1` [Compound I-293], for which the pIC50 was ≥ 6.52 and the inhibition at 2 µM is > 75%.

Consider `Cc1cc(OCC(=O)N(C)CC(F)(F)F)cc(=O)n1[C@H](C)c1ccc(C#CC2CC2)cc1` [Compound I-232], for which the pIC50 was ≥ 6.52 and the inhibition at 2 µM was > 75%.

`Cc1cc(OCc2ncccn2)cc(=O)n1[C@H](C)c1ccc(C#CC2CC2(F)F)cc1` (some centres unmarked) [Compound I-62] showed an inhibition at 10 µM of 50 to 75%.

Turning to `Cc1nc(OCC(=O)N2CCCC2)cc(=O)n1[C@@H](C)c1ccc(C#CC2CC2)cc1` [Compound I-236], the inhibition at 10 µM lay in the range of 25 to 50%.

In the case of `Cc1cc(OCC(=O)N(C)C)c(Br)c(=O)n1[C@H](C)c1ccc(C#CC2CC2)cc1` [Compound I-317], the inhibition at 10 µM lay within 50 to 75%.

Take `Cc1cc(OCC(=O)N(C)C2CC2)cc(=O)n1[C@H](C)c1ccc(C#CC2CC2)cc1` [Compound I-42]: the pIC50 is ≥ 6.52 and the inhibition at 10 µM is > 75%.

As for `CCc1cc([C@@H](C)n2c(C)cc(OCC(=O)N(C)C)cc2=O)ccc1C#CC1CC1` [Compound I-39], the pIC50 was ≥ 6.52 and the inhibition at 2 µM was > 75%.

Take `Cc1cc(OCC(=O)N2CCN(C)CC2)cc(=O)n1[C@H](C)c1ccc(C#CC2CC2)cc1` [Compound I-60]: the pIC50 was ≥ 6.52 and the inhibition at 10 µM was > 75%.

Turning to `Cc1cc(OCC(=O)N2CCOCC2)cc(=O)n1[C@H](C)c1ccc(C#CC2CC2)c(F)c1` [Compound I-27], the inhibition at 10 µM is > 75%.

`Cc1nc(OCC(=O)N2CC[C@H](C(=O)O)C2)cc(=O)n1[C@H](C)c1ccc(C#CC2CC2)cc1` [Compound I-299]: the pIC50 was 5.52 to 6.00 and the inhibition at 2 µM was > 75%.

For `Cc1cc(OCC(=O)N(C2CC2)C2CC2)cc(=O)n1[C@H](C)c1ccc(C#CC2CC2)cc1` [Compound I-278], the pIC50 is ≥ 6.52 and the inhibition at 2 µM was > 75%.

As to `Cc1cc(OCc2ncccn2)cc(=O)n1[C@H](C)c1ccc(OC(C)C)cc1` [Compound I-129], the inhibition at 10 µM is < 25%.

Regarding `Cc1cc(OCC(=O)N2CCC2)cc(=O)n1[C@H](C)c1ccc(C#CC2CC2)c(F)c1` [Compound I-23], the pIC50 was ≥ 6.52 and the inhibition at 2 µM was > 75%.
